Tests used:
PI3K p110α = biological target: T1, PI3K p110α (Homo sapiens, UniProt P42336); test: PI3 Kinase Activity/Inhibitor Assay Kit (Millipore […]-493), competitive biotinylated-PIP3/GRP1 ELISA, PIP2 substrate; format: biochemical
T1 construct: gene PIK3CA

PI3K p110β = biological target: T2, PI3K p110β (Homo sapiens, UniProt P42338); test: as above; format: biochemical
T2 construct: gene PIK3CB
T2 sequence (P42338 whole entry): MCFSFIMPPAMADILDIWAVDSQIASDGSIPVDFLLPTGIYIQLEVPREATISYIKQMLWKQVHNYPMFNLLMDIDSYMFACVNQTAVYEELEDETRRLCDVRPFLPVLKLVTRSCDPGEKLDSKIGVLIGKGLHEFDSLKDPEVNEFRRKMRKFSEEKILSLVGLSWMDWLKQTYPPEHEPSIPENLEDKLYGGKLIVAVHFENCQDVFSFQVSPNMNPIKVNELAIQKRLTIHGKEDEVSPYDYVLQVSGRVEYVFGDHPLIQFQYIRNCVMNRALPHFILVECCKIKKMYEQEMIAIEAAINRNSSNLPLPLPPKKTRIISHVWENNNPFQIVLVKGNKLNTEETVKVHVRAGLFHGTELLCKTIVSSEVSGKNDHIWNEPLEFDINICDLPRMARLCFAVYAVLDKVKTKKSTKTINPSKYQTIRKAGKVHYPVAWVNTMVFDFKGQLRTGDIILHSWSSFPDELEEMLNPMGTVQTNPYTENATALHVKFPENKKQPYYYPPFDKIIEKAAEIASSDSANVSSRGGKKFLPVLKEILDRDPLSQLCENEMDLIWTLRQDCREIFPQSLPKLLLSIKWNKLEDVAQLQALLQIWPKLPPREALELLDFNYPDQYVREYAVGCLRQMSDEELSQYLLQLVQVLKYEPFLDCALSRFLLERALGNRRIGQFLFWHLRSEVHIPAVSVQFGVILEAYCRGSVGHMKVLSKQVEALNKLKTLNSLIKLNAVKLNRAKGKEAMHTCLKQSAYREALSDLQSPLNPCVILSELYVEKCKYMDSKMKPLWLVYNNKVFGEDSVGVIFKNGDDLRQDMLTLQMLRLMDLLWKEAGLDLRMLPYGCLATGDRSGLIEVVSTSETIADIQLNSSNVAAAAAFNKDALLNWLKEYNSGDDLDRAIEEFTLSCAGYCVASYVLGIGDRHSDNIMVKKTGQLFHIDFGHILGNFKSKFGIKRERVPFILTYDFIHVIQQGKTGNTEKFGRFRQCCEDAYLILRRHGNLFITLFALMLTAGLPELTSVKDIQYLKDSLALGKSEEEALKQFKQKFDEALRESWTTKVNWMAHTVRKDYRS

T1 sequence (P42336 whole entry): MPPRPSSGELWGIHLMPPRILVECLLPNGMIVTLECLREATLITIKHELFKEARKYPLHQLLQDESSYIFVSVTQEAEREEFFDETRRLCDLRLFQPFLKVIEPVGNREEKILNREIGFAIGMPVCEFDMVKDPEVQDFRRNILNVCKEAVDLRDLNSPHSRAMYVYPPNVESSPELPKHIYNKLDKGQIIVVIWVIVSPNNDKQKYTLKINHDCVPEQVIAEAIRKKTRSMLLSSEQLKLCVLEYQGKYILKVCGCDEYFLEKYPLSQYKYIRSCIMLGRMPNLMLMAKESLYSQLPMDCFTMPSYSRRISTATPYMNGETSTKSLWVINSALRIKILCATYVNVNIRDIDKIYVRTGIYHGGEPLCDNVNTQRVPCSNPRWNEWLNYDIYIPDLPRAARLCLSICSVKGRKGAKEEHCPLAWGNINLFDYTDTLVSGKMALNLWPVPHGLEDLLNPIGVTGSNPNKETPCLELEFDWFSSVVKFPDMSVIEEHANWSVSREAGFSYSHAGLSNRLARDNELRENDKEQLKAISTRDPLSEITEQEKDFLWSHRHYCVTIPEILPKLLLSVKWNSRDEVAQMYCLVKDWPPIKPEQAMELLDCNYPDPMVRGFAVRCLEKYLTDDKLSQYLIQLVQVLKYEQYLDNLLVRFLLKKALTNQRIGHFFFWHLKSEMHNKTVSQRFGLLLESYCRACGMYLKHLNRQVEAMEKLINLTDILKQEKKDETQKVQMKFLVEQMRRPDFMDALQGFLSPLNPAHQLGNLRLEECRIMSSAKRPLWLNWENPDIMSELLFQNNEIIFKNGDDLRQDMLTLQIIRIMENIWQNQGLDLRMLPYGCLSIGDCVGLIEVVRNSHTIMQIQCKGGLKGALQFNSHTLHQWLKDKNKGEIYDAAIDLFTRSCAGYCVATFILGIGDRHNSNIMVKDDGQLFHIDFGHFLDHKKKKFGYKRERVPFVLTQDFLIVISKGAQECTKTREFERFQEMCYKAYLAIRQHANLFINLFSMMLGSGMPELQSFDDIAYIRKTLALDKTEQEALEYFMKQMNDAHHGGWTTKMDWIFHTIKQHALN

IC50 (PI3K p110α): 90.2 µM | IC50 (PI3K p110β): 21.7 µM
Structure (SMILES): O[C@H]1[C@H](O)[C@@H](O)[C@H](O)[C@@H](O)[C@H]1O [MI, Myo-inositol]

Source: publication PMC10094297, “The Attenuation of Insulin/IGF-1 Signaling Pathway Plays a Crucial Role in the Myo-Inositol-Alleviated Aging in Caenorhabditis elegans” (International Journal of Molecular Sciences, 2023)
